In patent US11207379B2, “Peptides with anti-cancer activity” (IDP DISCOVERY PHARMA, S.L., priority 2016, dated 2021):
Read-outs that look alike come from different tables or passages of the source. Bridge positions count the residues as written; N and C are the ends. Square brackets hold non-standard residues; d marks the D form. Ends that are not written are not given here. Peptide text beside a SMILES is read from it. R8 = C=CCCCCCC[C@@](C)(N)C(=O)O; S5 = C=CCCC[C@](C)(N)C(=O)O

Assays:
Assay in all cases: Viability assay (MTT, Alamar Blue, hexosaminidase), 72 h
Assay type in all cases: cell-based
[1] = biological target: MM.1S, B Lymphoblast (multiple myeloma)
Method: MM.1S, B Lymphoblast (multiple myeloma), ATCC: CRL-2974
(§1) Cell lines A549, MCF-7 and RAMOS were cultured in incubator under CO2 (6%) at 37° C. in DMEM high glucose (Dulbecco's Modified Eagle Solution, Gibco-BRL 31966-21) medium with 10% fetal bovine serum inactivated (FBS) (Gibco-BRL 10106-169). Cell lines HL-60 and MM.1S were cultured in incubator at 37° C. in RPMI-1640 (Sigma R8758) medium with 10% of fetal bovine serum inactivated (FBS) and 2 mM glutamine (Sigma G7513). Cell lines BJ were cultured in incubator under CO2 (6%) at 37° C. in Eagle's Minimum Essential Medium (Sigma, M-2279) with 10% fetal bovine serum inactivated (FBS) (Gibco-BRL 10106-169).
(§2) During the amplification step and the assays adherent cells were rinsed with DPBS (Dulbecco's Phosphate Buffered Saline, Sigma D1283) three times and afterward treated for 5 minutes with trypsin ([…]) (Gibco-BRL, 15400054) in solution of DPBS at 37° C., and, once detached, transferred in the culturing medium. No-adherent cells were centrifuged and transferred in the culturing medium. Cells were counted in a Neubauer chamber after labelling with Tripan-Blue.
(§3) A549, MCF-7 and JB cells were seeded at a density of 5000 cells/well and HL-60, MM.1S and Ramos at 10000 cells/well in 100 μl of medium in 96 well plates. After 24 h, the compounds to be tested were added to calculate the dose/response curve at the starting concentration of 100 μM with serial dilutions (1:1). Controls are the untreated cells. Each experiment was performed in triplicate.
(§4) Cells were incubated during 72 h in incubator under CO2 atmosphere at 37° C. Cell viability was measured by means of MTT (3-(4,5-dimethylthiazol-2-yl)-2.5-diphenyltetrazolium bromide) assay, Alamar Blue® (Biosource DAL1100) and Hexosaminidase activity test, consecutively, following manufacturer instructions.
(§5) MTT: 1. Stock solution of MTT (475989 Calbiochem) was 5 mg/ml in PBS 1×. As negative control (experiment noise) 3 wells were treated with 20 μl/well of a solution of SDS 10% in H2O. The same control was used for Alamar Blue/Hexosaminidase. 10 μl/well of MTT solution were added and the plate was incubated for 3-4 hr. The medium was discarded and 100 μl of extracting buffer (PBS 1×, 15% SDS, 50% […] N,N-Dimethylformamide, pH 4.7) were added to each well. Plates were incubated for 16 h at room temperature under orbital shaking. Absorbance at 570 nm was finally measured.
(§6) Alamar Blue: 10 μl Alamar Blue solution was added to each well and the plates were incubated for […] in the incubator. Fluorescence ratio at 535/590 (excitation/emission) was measured in Cytofluor (Millipore) fluorimeter. Blank control was determined by lysis of untreated cells with con 2% of Triton X100, right before adding Alamar Blue solution.
(§7) Hexosaminidase activity test: after Alamar Blue lecture, medium was discarded and plates were rinsed once with PBS. 60 μl hexosaminidase substrate (p-nitrophenol-N-acetyl-beta-D-glucosamide 7.5 mM [Sigma N-9376], sodium citrate 0.1 M, pH 5.0, 0.25% Triton X-100) was added to each well and the plates were incubated at 37° C. for 2-5 h, according to the cell type (hexosaminidase activity changes according to the cell type). […] Blank control was the same as described before.
(§8) Data analysis was performed calculating the percentage of cell viability normalized vs. the values of negative control, which was considered equal to 100%. The dose/response curve was fitted through the sigmoidal equation dose-response (variable slope) and the EC50 values were calculated as follow: Y=Bottom+(Top−Bottom)/(1+10^{[(Log EC50−X)*HillSlope]},

[2] = biological target: HL-60, promyeloblast (acute myelocytic leukemia, AML)
Method: HL-60, promyeloblast (acute myelocytic leukemia, AML), ECACC: 98070106
as §1, §2, §3, §4, §5, §6, §7, §8

[3] = biological target: A549, epithelial (lung cancer)
Method: A549, epithelial (lung cancer), ATCC:CCL-185
as §1, §2, §3, §4, §5, §6, §7, §8

[4] = biological target: MCF-7, epithelial (breast cancer)
Method: MCF-7, epithelial (breast cancer), ECACC: 86012803
as §1, §2, §3, §4, §5, §6, §7, §8

[5] = biological target: RAMOS, B lymphocyte (Burkitt's Lymphoma)
Method: RAMOS, B lymphocyte (Burkitt's Lymphoma), ATCC: CRL-1596
as §1, §2, §3, §4, §5, §6, §7, §8

Row | Molecule | EC50 ([1]; MM.1S cells, read-out: EC50) | EC50 ([2]; HL-60 cells, read-out: EC50) | EC50 ([3]; A549 cells, read-out: EC50) | EC50 ([4]; MCF7 cells, read-out: EC50) | EC50 ([5]; Ramos cells, read-out: EC50) | EC50 [1] | EC50 [2] | EC50 [3] | EC50 [4] | EC50 [5]
1 | CCc1ccc(/C=C2/SC(=S)NC2=O)cc1 [10058-F4, reference compound] | > 100 µM | 54 ± 2 µM | > 100 µM | ~52 µM | ~57 µM |  |  |  |  | 
2 | APKXVIFKKAXAYILS-OH [IDP-S14] | 6.6 ± 0.9 µM | 7.8 ± 0.4 µM | 9.1 ± 0.8 µM |  | 55 µM |  |  |  |  | 
3 | CC[C@H](C)[C@H](NC(=O)[C@@H](NC(=O)[C@@H](NC(=O)[C@H](CCCCN)NC(=O)[C@@H]1CCCN1C(=O)[C@H](C)N)C(C)C)C(C)C)C(=O)N[C@]1(C)CCCCCC/C=C\CCC[C@@](C)(C(=O)N[C@@H](CC(C)C)C(=O)N[C@@H](CO)C(N)=O)NC(=O)[C@H](Cc2ccc(O)cc2)NC(=O)[C@H](C)NC(=O)[C@H]([C@@H](C)O)NC(=O)[C@H](C)NC(=O)[C@H](CCCCN)NC(=O)[C@H](CCCCN)NC1=O [IDP-S17, APKVVIXKKATAYXLS] (H-APKVVI[R8]KKATAY[S5]LS-NH2; staple (Z) 7-14; N-terminus and C-terminus assumed) |  |  |  |  |  | > 100 µM | > 100 µM | > 100 µM | > 100 µM | > 100 µM
4 | CC[C@H](C)[C@@H]1NC(=O)[C@H](Cc2ccc(O)cc2)NC(=O)[C@H](C)NC(=O)[C@H]([C@@H](C)O)NC(=O)[C@H](C)NC(=O)[C@H](CCCCN)NC(=O)[C@](C)(NC(=O)[C@H](CC(C)C)NC(=O)[C@@H](NC(=O)[C@@H](NC(=O)[C@@H](NC(=O)[C@H](CCCCN)NC(=O)[C@@H]2CCCN2C(=O)[C@H](C)N)C(C)C)C(C)C)[C@@H](C)CC)CCCCCC/C=C\CCC[C@@](C)(C(=O)N[C@@H](CO)C(N)=O)NC1=O [IDP-S18, APKVVILXKATAYIXS] (H-APKVVIL[R8]KATAYI[S5]S-NH2; staple (Z) 8-15; N-terminus and C-terminus assumed) |  |  |  |  |  | > 100 µM | > 100 µM | > 100 µM | > 100 µM | > 100 µM
5 | CC[C@H](C)[C@H](NC(=O)[C@]1(C)CCC/C=C\CCCCCC[C@@](C)(NC(=O)[C@@H](NC(=O)[C@@H](NC(=O)[C@H](CCCCN)NC(=O)[C@@H]2CCCN2C(=O)[C@H](C)N)C(C)C)C(C)C)C(=O)N[C@@H](CC(C)C)C(=O)N[C@@H](CCCCN)C(=O)N[C@@H](CCCCN)C(=O)N[C@@H](C)C(=O)N[C@@H]([C@@H](C)O)C(=O)N[C@@H](C)C(=O)N1)C(=O)N[C@@H](CC(C)C)C(=O)N[C@@H](CO)C(N)=O [IDP-S22, APKVVXLKKATAXILS] (H-APKVV[R8]LKKATA[S5]ILS-NH2; staple (Z) 6-13; N-terminus and C-terminus assumed) |  |  |  |  |  | > 100 µM | > 100 µM | > 100 µM | > 100 µM | > 100 µM
6 | RQRRNELKRXFFALRDX-NH2 [IDP-S12] | 22 ± 2 µM | 23 ± 1 µM | 50 µM | 42 ± 2 µM | 52 ± 2 µM |  |  |  |  | 
7 | QRRNXLKRAFAXLRD-OH [IDP-S312] | ~25 µM |  |  |  |  |  |  |  |  | 
8 | RQRRNXLKRAFAXLRD-OH [IDP-S311] | ~15 µM |  |  |  |  |  |  |  |  | 
9 | CC(C)C[C@@H]1NC(=O)[C@H](C)NC(=O)[C@H](C)NC(=O)[C@H](Cc2ccccc2)NC(=O)[C@](C)(NC(=O)[C@H](CCCNC(=N)N)NC(=O)[C@H](CCCCN)NC(=O)[C@H](CC(C)C)NC(=O)[C@H](CCC(=O)O)NC(=O)[C@H](CC(N)=O)NC(=O)[C@H](CCCNC(=N)N)NC(=O)[C@H](CCCNC(=N)N)NC(=O)[C@H](CCC(N)=O)NC(=O)[C@@H](N)CCCNC(=N)N)CCCCCC/C=C\CCC[C@@](C)(C(N)=O)NC(=O)[C@H](CC(=O)O)NC(=O)[C@H](CCCNC(=N)N)NC1=O [IDP-S04, RQRRNELKRXFAALRDX-H2] (H-RQRRNELKR[R8]FAALRD[S5]-NH2; staple (Z) 10-17; N-terminus assumed) | 19 ± 1 µM | ~24 µM |  | ~60 µM | ~64 µM |  |  |  |  | 
10 | RQRRNELKRSFFALRDQ [IDP-L11, RQRRNELKRSFFALRDQ] |  |  |  |  |  | > 100 µM | > 100 µM |  | > 100 µM | > 100 µM
11 | CC(C)C[C@@H]1NC(=O)[C@H](C)NC(=O)[C@H](Cc2ccccc2)NC(=O)[C@H](Cc2ccccc2)NC(=O)[C@](C)(NC(=O)[C@H](CCCNC(=N)N)NC(=O)[C@H](CCCCN)NC(=O)[C@H](CC(C)C)NC(=O)[C@H](CCC(=O)O)NC(=O)[C@@H](N)CC(N)=O)CCCCCC/C=C\CCC[C@@](C)(C(N)=O)NC(=O)[C@H](CC(=O)O)NC(=O)[C@H](CCCNC(=N)N)NC1=O [IDP-S13, NELKRXFFALRDX-NH2] (H-NELKR[R8]FFALRD[S5]-NH2; staple (Z) 6-13; N-terminus assumed) | > 100 µM | > 100 µM |  | > 100 µM | > 100 µM |  |  |  |  | 
